Columns and labels:
[1] = test system: large (Lg) crabgrass; experiment: Test A preemergence; format: in vivo, Digitaria sanguinalis; conditions: Digitaria sanguinalis, pre-emergence, 240 h
In short: (§1)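 Scoring: eye-based comparison with untreated controls, 0 for no effect through 100 for complete control, at about day 10. Treatments: directed soil spray preemergence; foliar spray postemergence on 2–10 cm plants at the one- to two-leaf stage. Medium: loam soil with sand.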

[2] = test system: morningglory; experiment: Test A preemergence; format: in vivo, Ipomoea spp.
In short: as §1

[3] = test system: velvetleaf; experiment: Test A preemergence; format: in vivo, Abutilon theophrasti
In short: as §1

[4] = test system: corn; experiment: Test A preemergence; format: in vivo, Zea mays; conditions: Zea mays, pre-emergence, 240 h
In short: as §1

[5] = test system: barnyardgrass; experiment: Test A postemergence; format: in vivo, Echinochloa crus-galli; conditions: Echinochloa crus-galli, post-emergence, 240 h
In short: as §1

[6] = test system: wheat; experiment: Test A postemergence; format: in vivo, Triticum aestivum; conditions: Triticum aestivum, post-emergence, 240 h, 0 to 100 scale where 0 is no effect and 100 is complete control, read-out: Plant response rating, Wheat
In short: as §1

[7] = test system: rice; experiment: Test B flooded paddy test; format: in vivo, Oryza sativa; conditions: Oryza sativa; Flood, 250 g ai/ha; 0 to 100 scale where 0 is no effect and 100 is complete control; read-out: Plant response rating, Rice
In short: (§2)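 Scores from 0 (no effect) to 100 (complete control) are visual comparisons with controls, taken 13 to 15 days after compound was applied into floodwater 3 cm deep around 2-leaf plants.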

[8] = test system: sedge, umbrella; experiment: Test B flooded paddy test; format: in vivo, Cyperus difformis; conditions: Cyperus difformis, Flood, 250 g ai/ha; 0 to 100 scale where 0 is no effect and 100 is complete control; read-out: Plant response rating, Sedge, Umbrella
In short: as §2

[9] = test system: Heteranthera limosa; experiment: Test B flooded paddy test; format: in vivo; conditions: Heteranthera limosa, Flood, 250 g ai/ha; 0 to 100 scale where 0 is no effect and 100 is complete control; read-out: Plant response rating, Ducksalad
In short: as §2

[10] = test system: barnyardgrass; experiment: Test B flooded paddy test; format: in vivo, Echinochloa crus-galli; conditions: Echinochloa crus-galli; Flood, 250 g ai/ha; 0 to 100 scale where 0 is no effect and 100 is complete control; read-out: Plant response rating, Barnyardgrass
In short: as §2

[11] = test system: wheat, winter; experiment: Test C postemergence; format: in vivo, Triticum aestivum; conditions: Triticum aestivum, post-emergence
In short: (§3)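 Injury was assessed visually against controls 13 to 15 days after application, with 0 meaning no effect and 100 full control; missing entries are shown as a dash. Preemergence sprays hit seeded loam–sand soil, postemergence sprays hit 1- to 4-leaf plants.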

[12] = test system: corn; experiment: Test C postemergence; format: in vivo, Zea mays; conditions: Zea mays, post-emergence
In short: as §3

[13] = test system: giant foxtail; experiment: Test C postemergence; format: in vivo, Setaria faberii; conditions: Setaria faberi, post-emergence
In short: as §3

[14] = test system: morningglory; experiment: Test C postemergence; format: in vivo, Ipomoea coccinea; conditions: Ipomoea, post-emergence
In short: as §3

[15] = test system: yellow nutsedge; experiment: Test C postemergence; format: in vivo, Cyperus esculentus; conditions: Cyperus, post-emergence
In short: as §3

[16] = test system: ragweed; experiment: Test C postemergence; format: in vivo, Ambrosia elatior; conditions: Ambrosia artemisiifolia, post-emergence
In short: as §3

[17] = test system: soybean; experiment: Test C postemergence; format: in vivo, Glycine max; conditions: Glycine max, post-emergence
In short: as §3

[18] = 125 g ai/ha, 0 to 100 scale where 0 is no effect and 100 is complete control
[19] = Postemergence, 31 g ai/ha, scale 0 to 100 (0 no effect, 100 complete control), 13 to 15 days
[20] = Postemergence, 62 g ai/ha, scale 0 to 100 (0 no effect, 100 complete control)

N#Cc1cccc(Oc2ncc(F)cn2)c1-n1cc(C(F)(F)F)cn1 [Compound 79, 3-[(5-fluoro-2-pyrimidinyl)oxy]-2-[4-(trifluoromethyl)-1H-pyrazol-1-yl]benzonitrile]
pest or weed control at 125 g/ha ([1]; 125 g ai/ha, 0 to 100 scale where 0 is no effect and 100 is complete control, read-out: Plant response rating, Crabgrass, Large): 100% | pest or weed control at 500 g/ha ([1]; 500 g ai/ha, 0 to 100 scale, 0 no effect, 100 complete control, approx. 10 days, read-out: Crabgrass, Large plant response rating): 100% | Plant response rating, Morningglory [2, 18]: 100 | pest or weed control at 500 g/ha ([2]; Ipomoea, pre-emergence, 240 h, 500 g ai/ha, 0 to 100 scale, 0 no effect, 100 complete control, approx. 10 days, read-out: Morningglory plant response rating): 100% | Plant response rating, Velvetleaf [3, 18]: 100 | pest or weed control at 500 g/ha ([3]; Abutilon theophrasti, pre-emergence, 240 h, 500 g ai/ha, 0 to 100 scale, 0 no effect, 100 complete control, approx. 10 days, read-out: Velvetleaf plant response rating): 100% | Corn plant response rating (crop injury, 0 = no effect, 100 = complete kill) at 125 g/ha [4, 18]: 80% | plant injury at 500 g/ha ([4]; 500 g ai/ha, 0 to 100 scale, 0 no effect, 100 complete control, approx. 10 days, read-out: Corn plant response rating): 100% | pest or weed control at 125 g/ha ([5]; 125 g ai/ha, 0 to 100 scale where 0 is no effect and 100 is complete control, read-out: Plant response rating, Barnyardgrass): 100% | pest or weed control at 500 g/ha ([5]; 500 g ai/ha, 0 to 100 scale, 0 no effect, 100 complete control, read-out: Plant response rating Barnyardgrass): 100% | plant injury at 125 g/ha ([6]; 125 g ai/ha): 80% | plant injury at 500 g/ha ([6]; 500 g ai/ha): 90% | plant injury at 250 g/ha [7]: 45% | pest or weed control at 250 g/ha [8]: 95% | pest or weed control at 250 g/ha [9]: 95% | pest or weed control at 250 g/ha [10]: 40% | plant injury at 125 g/ha ([11]; 125 g ai/ha, postemergence, read-out: Plant response rating (0 to 100), Wheat): 5% | plant injury at 250 g/ha ([11]; 250 g ai/ha, postemergence, read-out: Plant response rating (0 to 100), Wheat): 35% | plant injury at 31 g/ha ([11]; Postemergence, 31 g ai/ha, scale 0 to 100 (0 no effect, 100 complete control), 13 to 15 days, read-out: Plant response rating, Wheat): 0% | plant injury at 62 g/ha ([11]; Postemergence, 62 g ai/ha, scale 0 to 100 (0 no effect, 100 complete control), read-out: Plant response rating, Wheat): 5% | plant injury at 125 g/ha ([12]; 125 g ai/ha, postemergence, read-out: Plant response rating (0 to 100), Corn): 15% | plant injury at 250 g/ha ([12]; 250 g ai/ha, postemergence, read-out: Plant response rating (0 to 100), Corn): 35% | Corn plant response rating (crop injury, 0 = no effect, 100 = complete kill) at 31 g/ha [12, 19]: 5% | Corn plant response rating (crop injury, 0 = no effect, 100 = complete kill) at 62 g/ha [12, 20]: 5% | pest or weed control at 125 g/ha ([13]; 125 g ai/ha, postemergence, read-out: Plant response rating (0 to 100), Foxtail, Giant): 20% | pest or weed control at 250 g/ha ([13]; 250 g ai/ha, postemergence, read-out: Plant response rating (0 to 100), Foxtail, Giant): 65% | pest or weed control at 31 g/ha ([13]; Postemergence, 31 g ai/ha, scale 0 to 100 (0 no effect, 100 complete control), 13 to 15 days, read-out: Plant response rating, Foxtail, Giant): 10% | pest or weed control at 62 g/ha ([13]; Postemergence, 62 g ai/ha, scale 0 to 100 (0 no effect, 100 complete control), read-out: Plant response rating, Foxtail, Giant): 10% | pest or weed control at 125 g/ha ([14]; 125 g ai/ha, postemergence, read-out: Plant response rating (0 to 100), Morningglory): 95% | pest or weed control at 250 g/ha ([14]; 250 g ai/ha, postemergence, read-out: Plant response rating (0 to 100), Morningglory): 98% | pest or weed control at 31 g/ha ([14]; Postemergence, 31 g ai/ha, scale 0 to 100 (0 no effect, 100 complete control), 13 to 15 days, read-out: Plant response rating, Morningglory): 70% | pest or weed control at 62 g/ha ([14]; Postemergence, 62 g ai/ha, scale 0 to 100 (0 no effect, 100 complete control), read-out: Plant response rating, Morningglory): 95% | pest or weed control at 125 g/ha ([15]; 125 g ai/ha, postemergence, read-out: Plant response rating (0 to 100), Nutsedge, Yellow): 5% | pest or weed control at 250 g/ha ([15]; 250 g ai/ha, postemergence, read-out: Plant response rating (0 to 100), Nutsedge, Yellow): 25% | pest or weed control at 31 g/ha ([15]; Postemergence, 31 g ai/ha, scale 0 to 100 (0 no effect, 100 complete control), 13 to 15 days, read-out: Plant response rating, Nutsedge, Yellow): 5% | pest or weed control at 62 g/ha ([15]; Postemergence, 62 g ai/ha, scale 0 to 100 (0 no effect, 100 complete control), read-out: Plant response rating, Nutsedge, Yellow): 5% | pest or weed control at 125 g/ha ([16]; 125 g ai/ha, postemergence, read-out: Plant response rating (0 to 100), Ragweed): 70% | pest or weed control at 250 g/ha ([16]; 250 g ai/ha, postemergence, read-out: Plant response rating (0 to 100), Ragweed): 85% | pest or weed control at 31 g/ha ([16]; Postemergence, 31 g ai/ha, scale 0 to 100 (0 no effect, 100 complete control), 13 to 15 days, read-out: Plant response rating, Ragweed): 55% | pest or weed control at 62 g/ha ([16]; Postemergence, 62 g ai/ha, scale 0 to 100 (0 no effect, 100 complete control), read-out: Plant response rating, Ragweed): 70% | Soybean plant response rating (crop injury, 0-100 scale) at 125 g/ha ([17]; 125 g ai/ha, postemergence, read-out: Plant response rating (0 to 100), Soybean): 90% | Soybean plant response rating (crop injury, 0-100 scale) at 250 g/ha ([17]; 250 g ai/ha, postemergence): 95% | Soybean plant response rating (crop injury, 0-100 scale) at 31 g/ha [17, 19]: 65% | Soybean plant response rating (crop injury, 0-100 scale) at 62 g/ha [17, 20]: 85%
